Read-outs that look alike come from different tables or passages of the source.
Experiments:
MRSA ATCC 33591 = assay type: cell-based, Staphylococcus aureus
Procedure: (§1) According to checkerboard titration template, one component (A) of the combination was diluted along the rows of the plate, while the other (B) was diluted down the columns, thereby creating the variety of mixtures with different concentrations of tested compounds. 2.5 μl of corresponding solutions of the components A and B were added into each well of the plate. Into the first column and the last row the same amount of 10 mM sodium phosphate buffer, pH 7.4, containing 0.1% of BSA was introduced instead of the second component. Thus, all wells contained 5 μl of antimicrobial compounds solutions (solo or in combination). The same volume of bacterial suspension, prepared as described for microdilution assay, was added into each well. The results were recorded after the overnight incubation, visually indicating the presence or absence of the microbial growth in the corresponding wells. Based on the obtained data the isobolograms of combined action were plotted and/or Fractional Inhibitory Concentration Indices (FICI) were calculated. […] Depending on the minimal value of the FICI the combined effect of the combination was classified as antagonism (FICI > 2), independent action (1 < FICI ≤ 2), additivity (0.5 < FICI ≤ 1) or synergy (FICI ≤ 0.5), as is recommended in the literature and due to some drawbacks of the serial dilution method (Hsieh et al., [1993]; Orhan et al., [2005]; Fehri et al., [2007]). FICIs were assessed in 3–6 independent experiments and median values were used to define the nature of interaction.

[1] = tested on: A. baumannii (clin. isol.); assay type: cell-based, Acinetobacter baumannii; settings: AMP in combination with GEN (gentamicin)
Procedure: According to checkerboard titration template, one component (A) of the combination was diluted along the rows of the plate, while the other (B) was diluted down the columns, thereby creating the variety of mixtures with different concentrations of tested compounds. 2.5 μl of corresponding solutions of the components A and B were added into each well of the plate. Into the first column and the last row the same amount of 10 mM sodium phosphate buffer, pH 7.4, containing 0.1% of BSA was introduced instead of the second component. Thus, all wells contained 5 μl of antimicrobial compounds solutions (solo or in combination). The same volume of bacterial suspension, prepared as described for microdilution assay, was added into each well. The results were recorded after the overnight incubation, visually indicating the presence or absence of the microbial growth in the corresponding wells. Based on the obtained data the isobolograms of combined action were plotted and/or Fractional Inhibitory Concentration Indices (FICI) were calculated. […] FICIs were assessed in 3–6 independent experiments and median values were used to define the nature of interaction.

E. coli ML-35p = assay type: cell-based, Escherichia coli
Procedure: as §1

M. luteus CIP A270 = assay type: cell-based, Micrococcus luteus
Procedure: as §1

bacteria = experiment: Checkerboard titration, synergy cases with conventional antibiotics (all tested bacteria); assay type: cell-based; settings: in vitro, human AMPs
Procedure: as §1

[2] = AMP in combination with GEN (gentamicin)
[3] = AMP in combination with OX (oxacillin)
[4] = AMP in combination with PMB (polymyxin B)
[5] = AMP in combination with RIF (rifampicin)

Compound | Minimal FICI (MRSA ATCC 33591; [2]) | Minimal FICI (MRSA ATCC 33591; [3]) | Minimal FICI (MRSA ATCC 33591; [4]) | Minimal FICI (MRSA ATCC 33591; [5]) | Minimal FICI [1] | Minimal FICI (E. coli ML-35p; [2]) | Minimal FICI (E. coli ML-35p; [4]) | Minimal FICI (E. coli ML-35p; [5]) | Minimal FICI (M. luteus CIP A270; [2]) | Minimal FICI (M. luteus CIP A270; AMP in combination with OFL (ofloxacin)) | Minimal FICI (M. luteus CIP A270; [3]) | Minimal FICI (M. luteus CIP A270; [4]) | Minimal FICI (M. luteus CIP A270; [5]) | AMP concentration in synergy cases with conventional antibiotics (bacteria)
Lysozyme: egg white lysozyme, antimicrobial protein, from BioChemica | 0.53 | 0.53 | 0.56 | 0.62 | 0.75 | 0.53 | 0.25 | 0.62 | 0.62 | 0.62 | 0.75 | 0.62 | 0.75 | 
CC[C@H](C)[C@H](NC(=O)[C@H](CCCCN)NC(=O)[C@H](CCC(=O)O)NC(=O)[C@H](CCCCN)NC(=O)[C@H](CO)NC(=O)[C@H](CCCCN)NC(=O)[C@H](CCCNC(=N)N)NC(=O)[C@H](Cc1ccccc1)NC(=O)[C@H](Cc1ccccc1)NC(=O)[C@H](CC(=O)O)NC(=O)CNC(=O)[C@H](CC(C)C)NC(=O)[C@@H](N)CC(C)C)C(=O)NCC(=O)N[C@@H](CCCCN)C(=O)N[C@@H](CCC(=O)O)C(=O)N[C@@H](Cc1ccccc1)C(=O)N[C@@H](CCCCN)C(=O)N[C@@H](CCCNC(=N)N)C(=O)N[C@H](C(=O)N[C@H](C(=O)N[C@@H](CCC(N)=O)C(=O)N[C@@H](CCCNC(=N)N)C(=O)N[C@H](C(=O)N[C@@H](CCCCN)C(=O)N[C@@H](CC(=O)O)C(=O)N[C@@H](Cc1ccccc1)C(=O)N[C@@H](CC(C)C)C(=O)N[C@@H](CCCNC(=N)N)C(=O)N[C@@H](CC(N)=O)C(=O)N[C@@H](CC(C)C)C(=O)N[C@H](C(=O)N1CCC[C@H]1C(=O)N[C@@H](CCCNC(=N)N)C(=O)N[C@H](C(=O)N[C@@H](CCC(=O)O)C(=O)N[C@@H](CO)C(=O)O)[C@@H](C)O)C(C)C)[C@@H](C)CC)C(C)C)[C@@H](C)CC [LL-37] |  |  |  |  |  |  |  |  |  |  |  |  |  | around 150 nM
